Reference: patent US7872018B2, “Compounds and methods for kinase modulation, and indications therefor” (Plexxikon, Inc., priority 2006, dated 2011)
pIC50: −log10 of the molar value.

Columns and labels:
[1] = biological target: B-Raf V600E (Homo sapiens, UniProt P15056, V600E); assay: B-Raf V600E kinase activity assay; assay type: biochemical; conditions: under the test conditions employed; read-out: IC50 toward kinase B-Raf V600E
[2] = biological target: Fak (Homo sapiens, UniProt Q05397); assay: Fak kinase activity assay; assay type: biochemical; conditions: under the test conditions employed; read-out: IC50 toward kinase Fak
[3] = biological target: T1, Fms (Homo sapiens, UniProt P07333); assay: Fms biochemical assay (AlphaScreen or 33P-ATP); conditions: under the test conditions employed; read-out: IC50 toward kinase Fms
T1 construct: purchased Upstate Biotech 14-551
T1 sequence (P07333 20-972): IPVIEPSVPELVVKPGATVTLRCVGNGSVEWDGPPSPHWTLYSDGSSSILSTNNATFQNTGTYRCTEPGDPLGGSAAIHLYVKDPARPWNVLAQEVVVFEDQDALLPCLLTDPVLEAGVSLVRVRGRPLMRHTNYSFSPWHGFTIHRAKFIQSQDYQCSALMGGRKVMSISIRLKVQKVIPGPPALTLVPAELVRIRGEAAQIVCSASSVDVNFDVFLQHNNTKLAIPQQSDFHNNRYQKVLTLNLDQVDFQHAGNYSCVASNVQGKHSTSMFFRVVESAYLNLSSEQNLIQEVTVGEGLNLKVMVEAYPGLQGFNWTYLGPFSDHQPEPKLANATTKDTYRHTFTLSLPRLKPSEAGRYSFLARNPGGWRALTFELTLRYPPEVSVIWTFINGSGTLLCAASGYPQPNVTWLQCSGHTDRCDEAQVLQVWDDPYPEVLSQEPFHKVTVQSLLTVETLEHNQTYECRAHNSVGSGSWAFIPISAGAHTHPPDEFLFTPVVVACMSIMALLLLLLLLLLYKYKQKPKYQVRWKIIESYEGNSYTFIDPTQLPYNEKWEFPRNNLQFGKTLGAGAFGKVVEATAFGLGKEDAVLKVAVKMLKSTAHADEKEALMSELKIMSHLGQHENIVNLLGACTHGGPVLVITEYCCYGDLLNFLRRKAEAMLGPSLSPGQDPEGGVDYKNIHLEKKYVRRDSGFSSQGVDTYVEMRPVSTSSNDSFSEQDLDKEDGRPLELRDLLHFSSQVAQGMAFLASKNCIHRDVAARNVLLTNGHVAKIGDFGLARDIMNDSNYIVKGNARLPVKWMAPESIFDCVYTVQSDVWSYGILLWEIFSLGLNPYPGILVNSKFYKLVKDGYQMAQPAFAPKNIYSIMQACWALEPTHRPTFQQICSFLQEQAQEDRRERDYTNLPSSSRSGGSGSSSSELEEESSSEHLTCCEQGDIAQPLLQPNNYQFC
From the text: Each sample was at 5% DMSO.

[4] = biological target: T2, Kit (Homo sapiens, UniProt P10721); assay: c-kit biochemical assay (AlphaScreen or 33P-ATP); conditions: under the test conditions employed; read-out: IC50 toward kinase Kit
T2 construct: P1332.N6 BI PTP KIT M552-K948-X COD; made in house; host or cells: E. coli BL21(DE3)RIL, co-expressed with PTP1B
In short: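 Kinase activity read by AlphaScreen or 33P-ATP incorporation, with c-kit enzyme at 1 ng per sample. The enzyme was either commercial or a recombinant human kit construct made from a gene-synthesized coding sequence.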

[5] = biological target: B-Raf (Homo sapiens, UniProt P15056); assay: B-Raf kinase activity assay; assay type: biochemical; conditions: under the test conditions employed; read-out: IC50 toward kinase B-Raf
[6] = biological target: c-Raf-1 (Homo sapiens, UniProt P04049); assay: c-Raf-1 kinase activity assay; assay type: biochemical; conditions: under the test conditions employed; read-out: IC50 toward kinase c-Raf-1
Chain of c-Raf-1 (P04049 whole entry): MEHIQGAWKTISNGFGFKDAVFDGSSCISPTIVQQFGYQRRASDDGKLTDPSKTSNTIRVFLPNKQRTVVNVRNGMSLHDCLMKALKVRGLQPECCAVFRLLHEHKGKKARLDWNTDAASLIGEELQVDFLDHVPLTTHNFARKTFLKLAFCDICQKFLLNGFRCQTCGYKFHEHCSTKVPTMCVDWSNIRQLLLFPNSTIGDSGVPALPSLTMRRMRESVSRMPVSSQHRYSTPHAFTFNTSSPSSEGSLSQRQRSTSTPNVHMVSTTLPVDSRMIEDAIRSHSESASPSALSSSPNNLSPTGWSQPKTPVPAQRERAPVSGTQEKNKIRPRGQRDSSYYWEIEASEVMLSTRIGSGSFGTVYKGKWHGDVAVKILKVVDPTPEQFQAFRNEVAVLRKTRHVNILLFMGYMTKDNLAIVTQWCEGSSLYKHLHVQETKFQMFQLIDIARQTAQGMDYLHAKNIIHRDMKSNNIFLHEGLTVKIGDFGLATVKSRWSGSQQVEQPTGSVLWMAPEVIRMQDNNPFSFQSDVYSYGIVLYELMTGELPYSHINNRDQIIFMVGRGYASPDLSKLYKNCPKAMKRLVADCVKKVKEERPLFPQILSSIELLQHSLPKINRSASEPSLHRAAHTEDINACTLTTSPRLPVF

[7] = biological target: FGFR (Homo sapiens, UniProt P11362); assay: FGFR kinase activity assay; assay type: biochemical; conditions: under the test conditions employed; read-out: IC50 toward kinase FGFR
[8] = biological target: Flt1 (Homo sapiens, UniProt P17948); assay: Flt1 kinase activity assay; assay type: biochemical; conditions: under the test conditions employed; read-out: IC50 toward kinase Flt1
[9] = biological target: Kdr (Homo sapiens, UniProt P35968); assay: Kdr kinase activity assay; assay type: biochemical; conditions: under the test conditions employed; read-out: IC50 toward kinase Kdr
Chain of Kdr (P35968 20-1356): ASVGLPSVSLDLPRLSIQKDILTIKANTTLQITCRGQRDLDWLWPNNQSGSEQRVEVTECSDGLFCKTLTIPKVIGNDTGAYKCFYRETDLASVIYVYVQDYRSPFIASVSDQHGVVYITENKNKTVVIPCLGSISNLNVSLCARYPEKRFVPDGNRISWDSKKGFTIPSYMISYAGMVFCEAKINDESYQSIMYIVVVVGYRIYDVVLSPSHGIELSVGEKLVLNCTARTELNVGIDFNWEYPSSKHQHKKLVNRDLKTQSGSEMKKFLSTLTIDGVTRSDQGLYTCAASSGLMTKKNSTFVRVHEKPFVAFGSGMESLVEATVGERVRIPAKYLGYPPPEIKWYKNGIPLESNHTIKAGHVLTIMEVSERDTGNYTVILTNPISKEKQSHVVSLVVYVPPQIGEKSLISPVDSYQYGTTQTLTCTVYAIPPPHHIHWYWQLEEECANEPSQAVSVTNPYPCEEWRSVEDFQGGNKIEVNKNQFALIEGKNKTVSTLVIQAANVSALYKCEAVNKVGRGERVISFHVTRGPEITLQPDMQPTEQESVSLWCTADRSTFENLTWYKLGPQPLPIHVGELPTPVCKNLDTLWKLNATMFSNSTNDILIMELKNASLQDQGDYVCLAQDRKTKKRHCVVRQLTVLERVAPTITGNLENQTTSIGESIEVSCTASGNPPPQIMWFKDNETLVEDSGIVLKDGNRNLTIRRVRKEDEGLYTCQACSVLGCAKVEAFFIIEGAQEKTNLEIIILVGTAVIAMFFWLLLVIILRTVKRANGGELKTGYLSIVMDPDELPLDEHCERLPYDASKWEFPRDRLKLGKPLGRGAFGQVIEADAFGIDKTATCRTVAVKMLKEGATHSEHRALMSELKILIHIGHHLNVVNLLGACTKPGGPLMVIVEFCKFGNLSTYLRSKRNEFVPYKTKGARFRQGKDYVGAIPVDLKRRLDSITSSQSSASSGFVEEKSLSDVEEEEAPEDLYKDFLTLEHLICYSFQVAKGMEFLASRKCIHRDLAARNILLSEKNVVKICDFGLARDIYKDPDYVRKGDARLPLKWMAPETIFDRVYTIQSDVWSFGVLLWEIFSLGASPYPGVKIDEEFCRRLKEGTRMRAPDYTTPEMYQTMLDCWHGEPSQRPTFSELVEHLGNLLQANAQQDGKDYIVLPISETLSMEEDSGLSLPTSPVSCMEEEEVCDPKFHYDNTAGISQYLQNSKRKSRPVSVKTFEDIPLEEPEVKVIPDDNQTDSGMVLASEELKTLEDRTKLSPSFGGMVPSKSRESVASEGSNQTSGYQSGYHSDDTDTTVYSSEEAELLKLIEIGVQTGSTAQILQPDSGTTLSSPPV

[10] = biological target: T3, TrkA (Homo sapiens, UniProt P04629); assay: TrkA biochemical assay (AlphaScreen); conditions: under the test conditions employed; read-out: IC50 toward kinase TrkA
T3 construct: purchased Upstate Biotech 14-571
Description: Compounds tested were dissolved in DMSO (1 μL) and added to a white 384-well plate (Costar #3705). […] Each sample was at 5% DMSO. The plate was then incubated for 40 minutes at room temperature.

[11] = biological target: HGK (Homo sapiens, UniProt O95819); assay: HGK (MAP4K4) biochemical assay (AlphaScreen); conditions: under the test conditions employed; read-out: IC50 toward kinase HGK
Chain of HGK (O95819 whole entry): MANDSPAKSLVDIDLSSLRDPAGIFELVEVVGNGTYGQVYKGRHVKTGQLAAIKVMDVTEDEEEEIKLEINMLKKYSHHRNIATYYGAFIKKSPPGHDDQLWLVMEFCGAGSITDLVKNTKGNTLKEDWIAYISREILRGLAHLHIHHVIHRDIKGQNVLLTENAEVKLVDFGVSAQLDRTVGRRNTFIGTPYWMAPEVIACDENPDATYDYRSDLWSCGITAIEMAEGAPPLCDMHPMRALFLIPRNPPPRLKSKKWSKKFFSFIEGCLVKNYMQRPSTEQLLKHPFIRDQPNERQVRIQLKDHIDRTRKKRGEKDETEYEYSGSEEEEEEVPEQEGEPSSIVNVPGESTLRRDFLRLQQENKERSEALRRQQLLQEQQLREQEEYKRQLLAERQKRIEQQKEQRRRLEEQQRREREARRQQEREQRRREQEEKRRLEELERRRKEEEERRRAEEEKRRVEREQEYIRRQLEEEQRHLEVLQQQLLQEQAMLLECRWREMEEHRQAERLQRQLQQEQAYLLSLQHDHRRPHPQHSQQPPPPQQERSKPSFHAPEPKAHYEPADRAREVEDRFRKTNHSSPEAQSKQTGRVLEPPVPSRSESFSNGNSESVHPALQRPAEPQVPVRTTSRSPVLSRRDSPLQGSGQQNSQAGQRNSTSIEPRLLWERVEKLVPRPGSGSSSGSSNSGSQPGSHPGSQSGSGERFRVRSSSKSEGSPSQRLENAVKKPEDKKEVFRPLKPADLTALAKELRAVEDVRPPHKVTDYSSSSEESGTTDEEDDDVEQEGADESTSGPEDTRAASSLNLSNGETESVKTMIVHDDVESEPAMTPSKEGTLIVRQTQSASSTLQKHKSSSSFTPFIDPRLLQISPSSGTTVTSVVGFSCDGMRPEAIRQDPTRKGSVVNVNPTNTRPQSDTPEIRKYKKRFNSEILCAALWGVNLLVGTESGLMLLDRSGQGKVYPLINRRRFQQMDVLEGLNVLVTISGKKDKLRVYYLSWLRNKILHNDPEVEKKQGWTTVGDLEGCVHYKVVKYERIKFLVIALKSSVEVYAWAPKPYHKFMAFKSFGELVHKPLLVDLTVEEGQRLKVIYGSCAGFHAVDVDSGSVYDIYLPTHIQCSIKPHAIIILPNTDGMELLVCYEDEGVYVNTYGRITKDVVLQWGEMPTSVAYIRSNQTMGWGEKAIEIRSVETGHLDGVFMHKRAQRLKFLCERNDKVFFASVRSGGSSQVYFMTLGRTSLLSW
In short: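 AlphaScreen kinase assay with 0.5 ng MAP4K4 per sample and 10 nM biotin-ERM substrate, reacted 40 min at room temperature. Stopped with EDTA buffer containing phospho-ERM antibody (1:1000) plus donor and protein A acceptor beads (1 μg/ml final); signal tracks substrate phosphorylation.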

[12] = biological target: Btk (Homo sapiens, UniProt Q06187); assay: Btk kinase activity assay; assay type: biochemical; conditions: under the test conditions employed; read-out: IC50 toward kinase Btk
Chain of Btk (Q06187 whole entry): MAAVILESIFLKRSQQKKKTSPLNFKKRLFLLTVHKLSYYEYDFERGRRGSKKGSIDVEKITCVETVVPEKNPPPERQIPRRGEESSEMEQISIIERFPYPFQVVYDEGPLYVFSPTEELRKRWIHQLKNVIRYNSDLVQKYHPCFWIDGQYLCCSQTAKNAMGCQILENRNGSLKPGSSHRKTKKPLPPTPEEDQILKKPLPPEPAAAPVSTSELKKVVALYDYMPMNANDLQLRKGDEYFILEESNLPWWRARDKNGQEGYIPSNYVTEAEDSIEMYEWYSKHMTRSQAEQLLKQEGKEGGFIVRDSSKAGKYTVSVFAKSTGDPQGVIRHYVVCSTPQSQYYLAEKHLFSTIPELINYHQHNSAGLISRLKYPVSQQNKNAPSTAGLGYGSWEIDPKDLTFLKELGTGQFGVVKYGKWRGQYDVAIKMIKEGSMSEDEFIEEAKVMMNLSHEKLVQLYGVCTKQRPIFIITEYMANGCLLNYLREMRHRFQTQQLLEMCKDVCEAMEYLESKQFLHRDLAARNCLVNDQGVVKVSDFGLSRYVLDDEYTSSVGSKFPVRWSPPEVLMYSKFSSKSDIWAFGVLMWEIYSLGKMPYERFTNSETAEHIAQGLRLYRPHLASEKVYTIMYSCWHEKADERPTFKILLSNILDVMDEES

Measured: pIC50

Clc1ccc(COc2ccc(Cc3c[nH]c4ncccc34)cc2Cl)cc1 [P-1449, 3-[3-chloro-4-(4-chloro-benzyloxy)-benzyl]-1H-pyrrolo[2,3-b]pyridine]
≥ 5.00: [1] | [2] | [3] | [4]

COc1cc(OCc2ccc(Cl)cc2)ccc1Cc1c[nH]c2ncccc12 [P-1450, 3-[4-(4-chloro-benzyloxy)-2-methoxy-benzyl]-1H-pyrrolo[2,3-b]pyridine]
≥ 5.00: [1] | [2] | [3] | [4]

COCCOc1ccc(F)c(Cc2c[nH]c3ncc(Br)cc23)c1F [P-1454, 5-Bromo-3-[2,6-difluoro-3-(2-methoxy-ethoxy)-benzyl]1H-pyrrolo[2,3-b]pyridine]
≥ 5.00: [5] | [1] | [6] | [7] | [3] | [4]

O=C(c1c(F)ccc(OCc2ccccc2)c1F)c1c[nH]c2ncc(-c3cccnc3)cc12 [P-1467, (3-Benzyloxy-2,6-difluorophenyl)-(5-pyridin-3-yl-1H-pyrrolo[2,3-b]pyridin-3-yl)-methanone]
≥ 5.00: [5] | [1] | [7] | [8] | [3] | [4]

COc1cc(Cc2c[nH]c3ncc(Cl)cc23)ccc1OCc1ccc(Cl)cc1 [P-1532, 5-Chloro-3-[4-(4-chloro-benzyloxy)-3-methoxy-benzyl]-1H-pyrrolo[2,3-b]pyridine]
≥ 5.00: [5] | [1] | [8] | [3] | [4]

COc1cc(Cc2c[nH]c3ncccc23)ccc1OCc1ccc(Cl)cc1F [P-1544, 3-[4-(4-Chloro-2-fluoro-benzyloxy)-3-methoxy-benzyl]-1H-pyrrolo[2,3-b]pyridine]
≥ 5.00: [5] | [1] | [8] | [3] | [4]

COc1ccc(COc2ccc(Cc3c[nH]c4ncccc34)cc2OC)cc1 [P-1569, 3-[3-Methoxy-4-(4-methoxy-benzyloxy)-benzyl]-1H-pyrrolo[2,3-b]pyridine]
≥ 5.00: [5] | [1] | [8] | [3] | [4]

COCCOc1ccc(F)c(C(=O)c2c[nH]c3ncc(OC)cc23)c1F [P-1584, [2,6-Difluoro-3-(2-methoxy-ethoxy)-phenyl]-(5-methoxy-1H-pyrrolo[2,3-b]pyridin-3-yl)-methanone]
≥ 5.00: [5] | [1] | [7] | [8]

COc1cnc2[nH]cc(C(=O)c3c(F)ccc(OCc4ccccc4)c3F)c2c1 [P-1597, (3-Benzyloxy-2,6-difluoro-phenyl)-(5-methoxy-1H-pyrrolo[2,3-b]pyridin-3-yl)-methanone]
≥ 5.00: [5] | [1] | [7] | [8] | [3]

Fc1cc(OCc2nc3ccccc3[nH]2)c(F)cc1Cc1c[nH]c2ncc(Br)cc12 [P-2107, 2-[4-(5-Bromo-1H-pyrrolo[2,3-b]pyridin-3-ylmethyl)-2,5-difluoro-phenoxymethyl]-1H-benzoimidazole]
≥ 5.00: [6] | [8] | [3] | [9] | [4] | [10] | [11]

Cc1nc(C)c(COc2cccc(C(=O)c3c[nH]c4ncc(Cl)cc34)c2OCC2CC2)s1 [P-2140, (5-Chloro-1H-pyrrolo[2,3-b]pyridin-3-yl)-[2-cyclopropylmethoxy-3-(2,4-dimethyl-thiazol-5-ylmethoxy)-phenyl]-methanone]
≥ 5.00: [12] | [3] | [4]

CCOc1c(OCc2ccc(N(CC)CC)nc2)cccc1C(=O)c1c[nH]c2ncccc12 [P-2143, [3-(6-Diethylamino-pyridin-3-ylmethoxy)-2-ethoxy-phenyl]-(1H-pyrrolo[2,3-b]pyridin-3-yl)-methanone]
≥ 5.00: [12] | [6] | [3]

CCOc1c(OCc2ccc(N3CCCC3)nc2)cccc1C(=O)c1c[nH]c2ncccc12 [P-2144, [2-Ethoxy-3-(6-pyrrolidin-1-yl-pyridin-3-ylmethoxy)-phenyl]-(1H-pyrrolo[2,3-b]pyridin-3-yl)-methanone]
≥ 5.00: [5] | [12] | [3]

COCCOCCOc1cc(Cl)c(Cc2c[nH]c3ncc(Cl)cc23)cc1F [P-2155, 5-chloro-3-2-chloro-5-fluoro-4-[2-(2-methoxy-ethoxy)-ethoxy]-benzyl-1H-pyrrolo[2,3-b]pyridine]
≥ 5.00: [6] | [7] | [3] | [9]

COCCOc1ccc(F)c(C(=O)c2c[nH]c3ncc(Cl)cc23)c1Cl [P-2159, [2-Chloro-6-fluoro-3-(2-methoxy-ethoxy)-phenyl]-(5-chloro-1H-pyrrolo[2,3-b]pyridin-3-yl)-methanone]
≥ 5.00: [7] | [3] | [9] | [4]

COCCOc1ccc(F)c(C(=O)c2c[nH]c3ncccc23)c1Cl [P-2160, [2-Chloro-6-fluoro-3-(2-methoxy-ethoxy)-phenyl]-(1H-pyrrolo[2,3-b]pyridin-3-yl)-methanone]
≥ 5.00: [7] | [3] | [9] | [4]

Cn1cc(-c2cnc3[nH]cc(Cc4cc(F)c(O)cc4F)c3c2)cn1 [P-2161, 2,5-difluoro-4-[5-(1-methyl-1H-pyrazol-4-yl)-1H-pyrrolo[2,3-b]pyridin-3-ylmethyl]-phenol]
≥ 5.00: [12] | [8] | [3] | [9] | [4]

Cc1nc(C)c(COc2ccc(F)c(C(=O)c3c[nH]c4ncc(Cl)cc34)c2F)s1 [P-2162, (5-Chloro-1H-pyrrolo[2,3-b]pyridin-3-yl)-[3-(2,4-dimethyl-thiazol-5-ylmethoxy)-2,6-difluoro-phenyl]-methanone]
≥ 5.00: [12] | [3] | [9] | [4]

O=C(c1c(F)ccc(OCc2ccc(C(F)(F)F)nc2)c1F)c1c[nH]c2ncc(Cl)cc12 [P-2163, (5-Chloro-1H-pyrrolo[2,3-b]pyridin-3-yl)-[2,6-difluoro-3-(6-trifluoromethyl-pyridin-3-ylmethoxy)-phenyl]-methanone]
≥ 5.00: [12] | [3] | [9] | [4]

Cc1nc(COc2ccc(F)c(C(=O)c3c[nH]c4ncc(Cl)cc34)c2F)c(C)o1 [P-2164, (5-Chloro-1H-pyrrolo[2,3-b]pyridin-3-yl)-[3-(2,5-dimethyl-oxazol-4-ylmethoxy)-2,6-difluoro-phenyl]-methanone]
≥ 5.00: [5] | [1] | [12] | [8] | [3] | [9] | [4]

Cn1ccnc1COc1ccc(F)c(C(=O)c2c[nH]c3ncc(Cl)cc23)c1F [P-2165, (5-Chloro-1H-pyrrolo[2,3-b]pyridin-3-yl)-[2,6-difluoro-3-(1-methyl-1H-imidazol-2-ylmethoxy)-phenyl]-methanone]
≥ 5.00: [5] | [1] | [8] | [3] | [9] | [4]

COc1cc(Cc2c[nH]c3ncc(Br)cc23)c(F)cc1OCc1nc2ccccc2[nH]1 [P-2181, 2-[4-(5-Bromo-1H-pyrrolo[2,3-b]pyridin-3-ylmethyl)-5-fluoro-2-methoxy-phenoxymethyl]-1H-benzoimidazole]
≥ 5.00: [2] | [3] | [10] | [11]

N#Cc1cnc2[nH]cc(Cc3cc(F)c(OCc4nc5ccccc5[nH]4)cc3F)c2c1 [P-2185, 3-[4-(1H-Benzoimidazol-2-ylmethoxy)-2,5-difluoro-benzyl]-1H-pyrrolo[2,3-b]pyridine-5-carbonitrile]
not listed: [2] | [7] | [12]
≥ 5.00: all other assays above
